Results as given in patent publication US20250049776A1, “AUTOPHAGY INDUCING COMPOUNDS AND USES THEREOF, IN PARTICULAR FOR A SYSTEMIC TREATMENT OF DISEASES AND CONDITIONS” (Samsara Therapeutics Inc., priority 2021, published 2025).

Columns and labels:
Assay type in all cases: cell-based
[1] = system: Human osteosarcoma U20S cells; assay: Assay to measure lysosome and autolysosome formation (acidic vesicle formation, LysoView/LysoTracker staining); conditions: for increase in acidic vesicle formation: U20S cells, relative to DMSO-treated control (10 μM); for activation at 0.8 µM: Homo sapiens, U2OS cells, concentration of 0.8 μM, read-out: Activity (percentage increase in acidic vesicle formation over the DMSO-treated control), Table 2
Outline: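 U2OS cells treated with compounds in DMSO for 24 h, then stained 45 min at 37 °C with 1× LysoView 633 or 50 nM LysoTracker Deep Red, with Hoechst nuclear counterstain. Live-cell fluorescence imaging at 37 °C; acidic vesicle formation judged against DMSO-treated control.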

SH-SY5Y cells = assay: Acidic vesicle formation in SH-SY5Y cells (LysoTracker Deep Red); conditions: 24 hours
Experimental: This is evidence for significant stimulation of autophagy by this compound under these conditions. A brief description of the procedure is outlined here: • Day 1: Cells were seeded at 15K cells/well in the middle 60 wells of 6×96 well Cellvis imaging plates • Day 2: Media was replaced with 90 μl of DMEM/F12 (+10% FBS/1% P/S) containing NucBlue Live and the cells were treated with 10 μl of compound (10× concentrated) in triplicate for 24 hours. • Day3: Treatment was removed and cells were incubated for 30 minutes with LysoTracker™ Deep Red dye. Cells were washed twice with media and immediately imaged on EVOS M7000 at x20 (6 images per well, 30 minutes imaging time/plate). Images were analysed using Celleste Image analysis software.

[2] = system: U2OS cell line stabling expressing RFP-eGFP-hLC3b; assay: Tandem reporter assay (autophagic flux, RFP-only puncta); conditions: Homo sapiens, RFP-only puncta as percentage of DMSO-treated control, 24 hours; for activity at 1 µM: read-out: Autolysosome % DMSO activity (compound concentration of 1 μM); for activity at 10 µM: read-out: Autolysosome % DMSO activity (compound concentration of 10 μM)
Experimental: Selected compounds of this invention were also assessed for their ability to stimulate autophagy using a U20S cell line stabling expressing RFP-eGFP-hLC3b (a tandem reporter cell line). During the process of autophagy, the cargo to be degraded is first enveloped by organelles called autophagosomes. These autophagosomes then fuse with lysosomes, causing them to become acidified and their digestive enzymes to become activated. The term “autophagic flux” is used to represent the dynamic process of autophagy: autophagic flux refers to the whole process of autophagy, including autophagosome formation, maturation, fusion with lysosomes, subsequent breakdown and the release of macromolecules back into the cytosol (Zhang X J, Chen S, Huang K X, Le W D. Why should autophagic flux be assessed? Acta Pharmacol Sin. 2013 May; 34(5): 595-9. doi: 10.1038/aps.2012.184. Epub 2013 Mar. 11). Compounds that stimulate autophagic flux stimulate the dynamic process of autophagy (the whole process of autophagy).
LC3b is a protein found in the membrane of autophagosomes which has been used to generate genetic reporters of autophagy in cells. In these systems a tandem fusion of LC3b is engineered with two fluorescent proteins of different wavelengths: one which is acid sensitive (for example eGFP, which fluoresces green) and the other which is acid insensitive (for example RFP, which fluoresces red). Cells expressing RFP-eGFP-hLC3b can be examined using fluorescent microscopy: the autophagosomes present will fluoresce in both channels (either yellow in an overlay of both channels or puncta that are present in both the individual red and green channels) but the autolysosomes present will fluoresce in the RFP (red) channel only. Using a fluorescent microscope, the number of autophagosomes and autolysosomes can be counted, allowing for the monitoring of both the induction of autophagy (total puncta count) and the rate of autophagic flux (ratio of red-only to red-and-green puncta). The influence of small molecules on autophagy induction and flux can be assessed using this system by comparison to a non-treated control.
Representative Procedure: Human osteosarcoma U2OS cells stably expressing RFP-eGFP-hLC3b were seeded (10,000 cells/well) into a 96-well glass-bottom plate (Cell Carrier Ultra, Perkin Elmer) in DMEM Glutamax media (Gibco) supplemented with 10% Fetal Bovine Serum (FBS) and antibiotics (100 u/ml penicillin, 100 μg/ml streptomycin, Invitrogen), then incubated overnight in a humified atmosphere at 37° C. and 5% CO2. The cells were then treated with the compounds of interest, dissolved in DMSO, in a duplicated 5- or 10-point dose-response. 8 wells were treated with an equivalent volume of DMSO, 4 with 0.3 μM torin-1 as a positive control (MCE) and 4 wells with 0.4 μM torin-1 plus 0.2 μM bafilomycin (MCE) as a control for flux inhibition. The cells were returned to the incubator and the treatment continued for 24 hours. After treatment, the media was aspirated off and the cells fixed with a solution of 4% formaldehyde+1% glutaraldehyde (Sigma) in dPBS (plus magnesium and calcium, Gibco).
Fixation was allowed to proceed for 15 minutes at room temperature then the fixative solution discarded and replaced with PBS (Gibco) plus Hoescht 33342 ([…], Sigma). After 30 minutes the plates were imaged on an Opera Phenix confocal microscope (Perkin-Elmer) using a 40× water objective, collecting using DAPI, mCherry and GFP channels. Cells were detected based upon the staining of their nuclei with DAPI using the Harmony image analysis software (Perkin-Elmer) and the number of autophagosomes (GFP and RFP puncta) and autolysosomes (RFP only puncta) per cell were counted using the spot picking function within the software.

SMILES	increase in acidic vesicle formation [1]	Fold change at compound concentration of 0.8 μM (acidic vesicle formation relative to DMSO-treated control) (SH-SY5Y cells)	Fold change at compound concentration of 10 μM (acidic vesicle formation relative to DMSO-treated control) (SH-SY5Y cells)	activation at 0.8 µM [1] [%]	activity at 1 µM [2] [%]	activity at 10 µM [2] [%]
CC(C)N(C(=O)c1ccc(-c2cnn(-c3ccc(F)cc3)c2)[nH]1)C1CCNCC1 [Compound 310, 5-[1-(4-fluorophenyl)-1H-pyrazol-4-yl]-N-(piperidin-4-yl)-N-(propan-2-yl)-1H-pyrrole-2-carboxamide]	only a slight increase	1.9	4.5			
CC(C)N(C(=O)c1ccc(-c2cnn(-c3ccccc3)c2)[nH]1)[C@H]1CCNC1 [Compound 314, 5-(1-phenyl-1H-pyrazol-4-yl)-N-(propan-2-yl)-N-[(3S)-pyrrolidin-3-yl]-1H-pyrrole-2-carboxamide]		2.0	14.3	> 100		
CC(C)N(C(=O)c1csc(-c2cnn(-c3ccccc3)c2)n1)C1CC2(CNC2)C1 [Compound 319, N-{2-azaspiro[3.3]heptan-6-yl}-2-(1-phenyl-1H-pyrazol-4-yl)-N-(propan-2-yl)-1,3-thiazole-4-carboxamide]		2.4	2.7	30 to 50		
CC(C)N(C(=O)c1csc(-c2cnn(-c3ccccc3)c2)n1)C1C[C@H]2CNC[C@H]2C1 (stereo partly drawn) [Compound 320, N-[(3aR,6aS)-octahydrocyclopenta[c]pyrrol-5-yl]-2-(1-phenyl-1H-pyrazol-4-yl)-N-(propan-2-yl)-1,3-thiazole-4-carboxamide]	only a slight increase	1.9	3.3			
CC(C)N(C(=O)c1ccc(-c2cnn(-c3ccccc3)c2)[nH]1)[C@@H]1CCNC1 [Compound 313, 5-(1-phenyl-1H-pyrazol-4-yl)-N-(propan-2-yl)-N-[(3R)-pyrrolidin-3-yl]-1H-pyrrole-2-carboxamide]		2.0	13.2	> 100		
Cc1ccccc1-n1cc(-c2nc(C(=O)N(C(C)C)[C@H]3CCNC3)cs2)cn1 [Compound 397, 2-[1-(2-methylphenyl)-1H-pyrazol-4-yl]-N-(propan-2-yl)-N-[(3S)-pyrrolidin-3-yl]-1,3-thiazole-4-carboxamide]					115	191
CC(C)N(C(=O)c1csc(-c2cnn(-c3ccccc3)c2)n1)[C@H]1CCNC1 [Compound 311, 2-(1-phenyl-1H-pyrazol-4-yl)-N-(propan-2-yl)-N-[(3S)-pyrrolidin-3-yl]-1,3-thiazole-4-carboxamide]		2.3	3.5	50 to 100		
CC(C)N(C(=O)c1csc(-c2cnn(-c3ccccc3)c2)n1)C1CCNCC1(F)F (centres unmarked) [Compound 382, N-(3,3-difluoropiperidin-4-yl)-2-(1-phenyl-1H-pyrazol-4-yl)-N-(propan-2-yl)-1,3-thiazole-4-carboxamide]					96	108
CC(C)N(C(=O)c1coc(-c2cnn(-c3ccccc3)c2)n1)[C@H]1CCNC1 [Compound 381, 2-(1-phenyl-1H-pyrazol-4-yl)-N-(propan-2-yl)-N-[(3S)-pyrrolidin-3-yl]-1,3-oxazole-4-carboxamide]					118	179
O=C(c1coc(-c2cnn(-c3ccccc3OC(F)(F)F)c2)n1)N1C[C@H]2C[C@@H]1CN2 [Compound 378, (1R,4R)-2-(2-{1-[2-(trifluoromethoxy)phenyl]-1H-pyrazol-4-yl}-1,3-oxazole-4-carbonyl)-2,5-diazabicyclo[2.2.1]heptane]					122	199
